For 58 molecules, EC50 results are on record in US20120157401A1, “METHODS FOR TREATING NEUROFIBROMATOSIS” (PTC Therapeutics, Inc., priority 2009, published 2012).

Bounds are passed on as bounds.

The test system of one assay is hypoxia-inducible endogenous VEGF expression. Description: Hypoxia-inducible endogenous VEGF expression ELISA in HeLa cells, dose-response EC50 (Table 3). The assay is classed as cell-based, human. As to conditions: Homo sapiens, HeLa, read-out: ELISA EC50 μM. How it is done:
The ability of the Compounds to modulate hypoxia-inducible endogenous VEGF expression may be analyzed as follows. VEGF protein levels may be monitored by an ELISA assay (R&D Systems). Briefly, HeLa cells may be cultured for 24-48 hours under hypoxic conditions (1% O2, 5% CO2, balanced with nitrogen) in the presence or absence of a Compound. The conditioned media may then be assayed by ELISA, and the concentration of VEGF calculated from the standard ELISA curve of each assay.
A dose-response analysis may be performed using the ELISA assay and conditions described above. The conditions for the dose-response ELISA are analogous to those described above. A series of, e.g., seven different concentrations may be analyzed. In parallel, a dose-response cytotoxicity assay may be performed using Cell Titer Glo (Promega) under the same conditions as the ELISA to ensure that the inhibition of VEGF expression was not due to the cytotoxicity.
As for `O=C(Oc1ccc(Cl)cc1)N1CCc2c([nH]c3ccc(Cl)cc23)C1c1ccc(OCCCN2CCCC2)cc1` (stereo not shown) [Compound 429], the EC50 was less than 0.008 µM.

For the molecule `COCCN(CCCOc1ccc(C2c3[nH]c4ccc(Cl)cc4c3CCN2C(=O)Oc2ccc(Cl)cc2)cc1)CCOC` (stereo not shown) [Compound 916], the EC50 is less than 0.008 µM.

With `COCCN(C)CCCOc1cccc(C2c3[nH]c4ccc(Cl)cc4c3CCN2C(=O)Oc2ccc(F)cc2)c1` (stereo not shown) [Compound 1121], the EC50 is greater than 1 µM.

Take `O=C(Oc1ccc(F)cc1)N1CCc2c([nH]c3ccc(Cl)cc23)C1c1ccc(OCC(O)CN2CCOCC2)cc1` (stereo not shown) [Compound 638]: the EC50 is less than 0.008 µM.

Consider `O=C(Oc1ccc(F)cc1)N1CCc2c([nH]c3ccc(Cl)cc23)C1c1ccc(OCCCN2CCOCC2)cc1` (stereo not shown) [Compound 989], for which the EC50 was less than 0.008 µM.

With `O=C(Oc1ccc(Cl)cc1)N1CCc2c([nH]c3ccc(Cl)cc23)C1c1ccc(OCC(O)CN2CCOCC2)cc1` (stereo not shown) [Compound 904], the EC50 was less than 0.008 µM.

As to `COC(=O)[C@H]1CCCN1CCCOc1ccc(C2c3[nH]c4ccc(Cl)cc4c3CCN2C(=O)Oc2ccc(Cl)cc2)cc1` (stereo partly shown) [Compound 1362], the EC50 is less than 0.008 µM.

Turning to `COc1ccc(C2c3[nH]c4ccc(Cl)cc4c3CCN2C(=O)Oc2ccc(Cl)cc2)cc1OCCCCN1CCOCC1` (stereo not shown) [Compound 1097], the EC50 lay within 0.04 to 0.2 µM.

As to `CC(C)NCCCCCCOc1ccc(C2c3[nH]c4ccc(Cl)cc4c3CCN2C(=O)Oc2ccc(Cl)cc2)cc1` (stereo not shown) [Compound 784], the EC50 was less than 0.008 µM.

On to `O=C(Oc1ccc(F)cc1)N1CCc2c([nH]c3ccc(Cl)cc23)C1c1ccc(OCCCCNCCO)cc1` (stereo not shown) [Compound 735], for which the EC50 was less than 0.008 µM.

On to `CN1CCCC(COc2ccc(C3c4[nH]c5ccc(Cl)cc5c4CCN3C(=O)Oc3ccccc3)cc2)C1` (stereo not shown) [Compound 952], for which the EC50 lay in the range of 0.008 to 0.04 µM.

For the molecule `O=C(Oc1ccc(F)cc1)N1CCc2c([nH]c3ccc(Cl)cc23)C1c1ccc(OCCCCNCCCn2ccnc2)cc1` (stereo not shown) [Compound 741], the EC50 is 0.04 to 0.2 µM.

As for `O=C(Oc1ccc(Cl)cc1)N1CCc2c([nH]c3ccc(Cl)cc23)[C@@H]1c1ccc(OCCC(O)CN(CCO)CCO)cc1` (stereo partly shown) [Compound 1280], the EC50 lay in the range of 0.008 to 0.04 µM.

As to `COCCCNCCCCOc1ccc(C2c3[nH]c4ccc(Cl)cc4c3CCN2C(=O)Oc2ccc(F)cc2)cc1` (stereo not shown) [Compound 737], the EC50 lay in the range of 0.008 to 0.04 µM.

For the molecule `O=C(Oc1ccc(Cl)cc1)N1CCc2c([nH]c3ccc(Cl)cc23)[C@@H]1c1ccc(OC[C@@H](O)CN2CCOCC2)cc1` [Compound 1071], the EC50 was less than 0.008 µM.

In the case of `O=C(Oc1ccc(F)cc1)N1CCc2c([nH]c3ccc(Cl)cc23)C1c1ccc(OCCCCN2CCCC2)cc1` (stereo not shown) [Compound 736], the EC50 was less than 0.008 µM.

On to `CN1CCC(COc2ccc(C3c4[nH]c5ccc(Cl)cc5c4CCN3C(=O)Oc3ccc(Cl)cc3)cc2)CC1` (stereo not shown) [Compound 1099], for which the EC50 was 0.008 to 0.04 µM.

As to `CC(=O)N1CCN(CCCOc2ccc(C3c4[nH]c5ccc(Cl)cc5c4CCN3C(=O)Oc3ccc(F)cc3)cc2)CC1` (stereo not shown) [Compound 988], the EC50 was less than 0.008 µM.

`COc1ccc(OC(=O)N2CCc3c([nH]c4ccc(Cl)cc34)C2c2ccc(OCCC3CCCN3C)cc2)cc1` (stereo not shown) [Compound 1005]: the EC50 was in the range of 0.2 to 1 µM.

Still in this assay, the particulars now being: Homo sapiens; HeLa cells, hypoxic conditions (1% O2), 24-48 hours, VEGF in conditioned media; read-out: ELISA EC50.
For the molecule `O=C(Oc1ccc(Cl)cc1)N1CCc2c([nH]c3ccc(Cl)cc23)C1c1ccc(I)cc1` (stereo not shown) [Compound 428], the EC50 was less than 0.008 µM.

Take `Cc1ccc(OC(=O)N2CCc3c([nH]c4ccc(Cl)cc34)C2c2ccc(OCCCCl)cc2)cc1` (stereo not shown) [Compound 915]: the EC50 was less than 0.008 µM.

For the molecule `O=C(Oc1ccccc1)N1CCc2c([nH]c3ccc(Cl)cc23)C1c1ccc(OCCCO)cc1` (stereo not shown) [Compound 1062], the EC50 is less than 0.008 µM.

In the case of `Cc1ccc(OC(=O)N2CCc3c([nH]c4ccc(Cl)cc34)[C@@H]2c2ccc(OCCC(O)Cn3cncn3)cc2)cc1` (stereo partly shown) [Compound 1291], the EC50 fell in the range of 0.008 to 0.04 µM.

In the case of `CC(C)C(=O)Nc1ccc(C2c3[nH]c4ccc(Cl)cc4c3CCN2C(=O)Oc2ccc(Cl)cc2)cc1` (stereo not shown) [Compound 482], the EC50 lay in the range of 0.04 to 0.2 µM.

Take `COc1ccc(OC(=O)N2CCc3c([nH]c4ccc(Cl)cc34)C2c2ccc(OCC(O)CO)cc2)cc1` (stereo not shown) [Compound 635]: the EC50 was 0.008 to 0.04 µM.

As to `O=C(Oc1ccc(Cl)cc1)N1CCc2c([nH]c3ccc(Cl)cc23)C1c1ccc(OCC(O)Cn2ccnn2)cc1` (stereo not shown) [Compound 973], the EC50 lay within 0.008 to 0.04 µM.

As to `O=C(Oc1ccccc1)N1CCc2c([nH]c3ccc(Cl)cc23)C1c1ccc(OCCCn2ccnn2)cc1` (stereo not shown) [Compound 1077], the EC50 lay in the range of 0.008 to 0.04 µM.

Regarding `COCCOCCOc1ccc(C2c3[nH]c4ccc(Cl)cc4c3CCN2C(=O)Oc2ccc(F)cc2)cc1` (stereo not shown) [Compound 673], the EC50 is 0.008 to 0.04 µM.

`O=C(Oc1ccccc1)N1CCc2c([nH]c3ccc(Cl)cc23)C1c1ccc(OCCCn2nccn2)cc1` (stereo not shown) [Compound 1078]: the EC50 lay in the range of 0.008 to 0.04 µM.

Turning to `COc1ccc(OC(=O)N2CCc3c([nH]c4ccc(Cl)cc34)C2c2ccc(OCC(=O)N3CCOCC3)cc2)cc1` (stereo not shown) [Compound 1027], the EC50 lay in the range of 0.04 to 0.2 µM.

For `O=C(Oc1ccc(Cl)cc1)N1CCc2c([nH]c3ccc(Cl)cc23)C1c1ccc(OCCCO)cc1` (stereo not shown) [Compound 1111], the EC50 is less than 0.008 µM.

For `COc1ccc(OC(=O)N2CCc3c([nH]c4ccc(Cl)cc34)C2c2ccc(OCC[C@H]3COC(C)(C)O3)cc2)cc1` (stereo partly shown) [Compound 1171], the EC50 was less than 0.008 µM.

On to `O=C(Oc1ccc(F)cc1)N1CCc2c([nH]c3ccc(Cl)cc23)C1c1ccc(OCCCCCCCl)cc1` (stereo not shown) [Compound 723], for which the EC50 was less than 0.008 µM.

With `O=C(Oc1ccccc1)N1CCc2c([nH]c3ccc(Cl)cc23)C1c1ccc(OCCCCl)cc1` (stereo not shown) [Compound 710], the EC50 is less than 0.008 µM.

For `O=C(Oc1ccc(Cl)cc1)N1CCc2c([nH]c3ccc(Cl)cc23)C1c1ccc(OCC(O)Cn2cncn2)cc1` (stereo not shown) [Compound 996], the EC50 is less than 0.008 µM.

In the case of `COc1cc(C2c3[nH]c4ccc(Cl)cc4c3CCN2C(=O)Oc2ccc(Cl)cc2)ccc1OCCCCn1cncn1` (stereo not shown) [Compound 1088], the EC50 lay within 0.008 to 0.04 µM.

Regarding `O=C(Oc1ccc(Cl)cc1)N1CCc2c([nH]c3ccc(Cl)cc23)C1c1ccc(OCCCn2nccn2)cc1` (stereo not shown) [Compound 1016], the EC50 is greater than 1 µM.

Regarding `CC(=O)NCC(O)COc1ccc(C2c3[nH]c4ccc(Cl)cc4c3CCN2C(=O)Oc2ccc(Cl)cc2)cc1` (stereo not shown) [Compound 847], the EC50 lay in the range of 0.008 to 0.04 µM.

Consider `O=C1OCC(COc2ccc(C3c4[nH]c5ccc(Cl)cc5c4CCN3C(=O)Oc3ccc(Cl)cc3)cc2)O1` (stereo not shown) [Compound 421], for which the concentration for a half-maximal effect (EC50) was less than 0.008 µM.

For the molecule `O=C(COc1ccc(C2c3[nH]c4ccc(Cl)cc4c3CCN2C(=O)Oc2ccccc2)cc1)Oc1ccccc1` (stereo not shown) [Compound 366], the EC50 is greater than 1 µM.

`O=C(Oc1ccc(Cl)cc1)N1CCc2c([nH]c3ccc(Cl)cc23)C1c1ccc(OCCCCCCn2ccnc2)cc1` (stereo not shown) [Compound 790]: the EC50 is less than 0.008 µM.

For `COc1cc(C2c3[nH]c4ccc(Cl)cc4c3CCN2C(=O)Oc2ccccc2)ccc1OCCCn1cncn1` (stereo not shown) [Compound 1150], the EC50 fell in the range of 0.008 to 0.04 µM.

On to `CCS(=O)(=O)Nc1ccc(C2c3[nH]c4ccc(Cl)cc4c3CCN2C(=O)Oc2ccc(Cl)cc2)cc1` (stereo not shown) [Compound 958], for which the EC50 lay within 0.008 to 0.04 µM.

Take `O=C(Oc1ccc(Cl)cc1)N1CCc2c([nH]c3ccc(Br)cc23)C1c1ccc(C(F)(F)F)cc1` (stereo not shown) [Compound 405]: the EC50 was less than 0.008 µM.

For `O=C(Oc1ccc(Cl)cc1)N1CCc2c([nH]c3ccc(Cl)cc23)[C@@H]1c1ccc(OC[C@H](O)CO)cc1` [Compound 1223], the EC50 was less than 0.008 µM.

With `CC1(C)OC[C@H](COc2ccc([C@H]3c4[nH]c5ccc(Cl)cc5c4CCN3C(=O)Oc3ccc(Cl)cc3)cc2)O1` [Compound 1227], the EC50 was less than 0.008 µM.

Still in this assay, the particulars now being: Homo sapiens; HeLa cells, hypoxic conditions (1% O2), VEGF ELISA of conditioned media; read-out: ELISA EC50.
Regarding `CS(=O)(=O)CCCOc1ccc([C@H]2c3[nH]c4ccc(Cl)cc4c3CCN2C(=O)Oc2ccc(Cl)cc2)cc1` [Compound 1648], the EC50 was less than 0.008 µM.

`O=C(Oc1ccc(F)cc1)N1CCc2c([nH]c3ccc(Cl)cc23)[C@@H]1c1ccc(OC2CCOCC2)cc1` [Compound 1604]: the EC50 was less than 0.008 µM.

Regarding `COc1ccc(OC(=O)N2CCc3c([nH]c4ccc(Cl)cc34)[C@@H]2c2ccc(OCC[C@@H](O)CO)cc2)cc1` [Compound 1361], the EC50 fell in the range of 0.008 to 0.04 µM.

With `CC(C)C(=O)NCC(O)COc1ccc(C2c3[nH]c4ccc(Cl)cc4c3CCN2C(=O)Oc2ccc(Cl)cc2)cc1` (stereo not shown) [Compound 1559], the EC50 lay in the range of 0.008 to 0.04 µM.

Turning to `CCC(CO)(CO)COc1ccc(C2c3[nH]c4ccc(Br)cc4c3CCN2C(=O)Oc2ccc(F)cc2)cc1` (stereo not shown) [Compound 1357], the EC50 was less than 0.008 µM.

Regarding `COCCOC(=O)NCC(O)COc1ccc(C2c3[nH]c4ccc(Cl)cc4c3CCN2C(=O)Oc2ccc(Cl)cc2)cc1` (stereo not shown) [Compound 1564], the EC50 is less than 0.008 µM.

Regarding `COCCOC(=O)NCC(O)CCOc1ccc([C@H]2c3[nH]c4ccc(Cl)cc4c3CCN2C(=O)Oc2ccc(Cl)cc2)cc1` (stereo partly shown) [Compound 1637], the EC50 is less than 0.008 µM.

Regarding `Cc1ccc(OC(=O)N2CCc3c([nH]c4ccc(Cl)cc34)[C@@H]2c2ccc(OCCC(O)CNS(C)(=O)=O)cc2)cc1` (stereo partly shown) [Compound 1668], the EC50 lay in the range of 0.008 to 0.04 µM.

On to `O=C(Oc1ccc(Cl)cc1)N1CCc2c([nH]c3ccc(Br)cc23)C1c1ccc(OCC(O)CO)cc1` (stereo not shown) [Compound 1344], for which the EC50 is less than 0.008 µM.

For `N#CCOc1ccc(C2c3[nH]c4ccc(Cl)cc4c3CCN2C(=O)Oc2ccc(Cl)cc2)cc1` (stereo not shown) [Compound 1520], the EC50 is less than 0.008 µM.

As for `[H]/N=c1\sccn1CCOc1ccc(C2c3[nH]c4ccc(Cl)cc4c3CCN2C(=O)Oc2ccc(F)cc2)cc1` (stereo not shown) [Compound 1391], the EC50 is less than 0.008 µM.

As to `Cc1nccnc1Oc1ccc([C@H]2c3[nH]c4ccc(Cl)cc4c3CCN2C(=O)Oc2ccc(Cl)cc2)cc1` [Compound 1659], the concentration giving a half-maximal response (EC50) was less than 0.008 µM.

As usually defined, the EC50 is the concentration giving half of the maximal effect.
